Test results from patent publication US9528112B2, “Composition comprising material for inhibiting SCF or receptor thereof for treating or preventing diseases associated with vascular permeability” (AJOU UNIVERSITY INDUSTRY-ACADEMIC COOPERATION FOUNDATION, priority 2012, dated 2016).

Experiments:
[1] = test system: vascular endothelial cells; test: eNOS dependent increase of vascular endothelial cell permeability by SCF (L-NAME, transwell); type: cell-based; settings: SCF 20 ng/ml for 1 hour; FIG. 2B
Protocol: Vascular endothelial cells were loaded in the upper chamber of 12 well transwell filter (Corning Costar), followed by culture for 48 hours. The medium was replaced with the endothelical basal medium supplemented with 1% FBS, followed by further culture for 3 hours. L-NAME, the eNOS inhibitor, was pretreated (1 mM) to the cells for 30 minutes and then SCF (R&D Systems, Minneapolis, Minn., USA) was treated (20 ng/ml) thereto for 1 hour. FITC-conjugated dextran (fluorescein isothiocyanate-dextran) was also treated (1 mg/ml) thereto. 30 minutes later, the culture fluid was taken from the lower chamber, followed by the measurement with a fluorophotometer.

[2] = test system: C-Kit and Akt-eNOS; test: Intracellular signaling pathway of vascular endothelial cells with SCF (Western blotting); type: cell-based; settings: SCF 20 ng/ml, cells harvested over time, FIG. 1C
Protocol: Vascular endothelial cells were loaded in 60 mm plate, followed by culture for 24 hours. The medium was replaced with the endothelical basal medium supplemented with 1% FBS, followed by further culture for 6 hours. SCF (20 ng/ml) was treated thereto and the cells were harvested over the time, followed by Western blotting.

[3] = test system: NO (nitric oxide) in vascular endothelial cells; test: Generation of NO in vascular endothelial cells induced by SCF; type: cell-based; settings: SCF 20 ng/ml; culture supernatant collected over time; FIG. 2A
Protocol: Vascular endothelial cells were cultured in 12 well plate for 24 hours. The medium was replaced with the endothelial basal medium supplemented with 1% FBS, which was then treated with SCF (20 ng/ml). The culture fluid was collected over the time, followed by centrifugation. The level of NO (nitric oxide) in the supernatant was measured (Total No/Nitrite/Nitrate Assay Kit).

[4] = test system: mouse retinal vessels; test: Angiography of mouse retinal vessels (FITC-dextran, flat mount); type: in vivo; settings: SCF injected in the retina; 24 hours; FIG. 4A, 4B
Protocol: SCF and SCF receptor inhibiting antibody were injected in the retina of C57/BL6 mouse. 24 hours later, the mouse was anesthetized and then intracardiac FITC-dextran injection was performed in order to let the fluorescein flow through blood. 30 minutes later, the retina of the mouse was extracted and observed under a fluorescence microscope after flat mounting.

[5] = test system: vascular endothelial cells; test: C-Kit dependent permeability of vascular endothelial cells with SCF (siRNA, transwell, FITC-dextran); type: cell-based; settings: SCF 20 ng/ml; FITC-conjugated dextran; FIG. 1B
Protocol: Vascular endothelial cells were loaded in 60 mm plate. The control siRNA 5′-[…]-3′ (SEQ. ID. NO: 1) and the C-Kit siRNAs 5′-UCAUUCUUGAUGUCUCUGG-3′ (SEQ. ID. NO: 2); 5′-UUUGAGUUCAGACAUGAGG-3′ (SEQ. ID. NO: 3); 5′-UCUUAUAAAGUGCAGCUUC-3′ (SEQ. ID. NO: 4); and 5′-UACAAUGCCAUUCUGAAGC-3′ (SEQ. ID. NO: 5) were introduced in the cells by using lipofectamin. 24 hours later, the endothelial cells were transferred into the upper chamber of 12 well transwell filter (Corning Costar), followed by culture for 24 hours. The medium was replaced with the endothelical basal medium supplemented with 1% FBS, followed by further culture for 3 hours. SCF was treated thereto at the concentration of 20 ng/ml, followed by the treatment with FITC-conjugated dextran (1 mg/ml). 30 minutes later, the culture fluid was taken from the lower chamber, followed by the measurement with a fluorophotometer.

[6] = test system: VE-cadherin; test: VE-cadherin endocytosis of vascular endothelial cells (immunostaining); type: cell-based; settings: SCF 20 ng/ml or VEGF 50 ng/ml, 37° C., 30 minutes; for expression of VE-cadherin on the cell surface: FIG. 2C; for endocytosis of VE-cadherin: acid buffer wash, FIG. 2D
Protocol: Vascular endothelial cells were cultured in 8 well chamber slide (Lab-Tek) for 48 hours. The medium was replaced with the endothelical basal medium supplemented with 1% FBS, followed by culture for 16 hours. The cells were treated with VE-cadherin antibody (R&D Systems, Minneapolis, Minn., USA) at 4° C. for 1 hour. SCF (20 ng/ml) and VEGF (50 ng/ml) (R&D Systems, Minneapolis, Minn., USA) were added thereto at 37° C. for 30 minutes to introduce VE-cadherin into the cells. To observe VE-cadherin on the cell surface, fixation was performed with 4% PFA, followed by immunostaining. To observe VE-cadherin in the inside of the cells migrated by SCF and VEGF mediated endocytosis, VE-cadherin on the cell surface was first removed by using an acid buffer (pH 2.7) and then the cells were fixed with 4% PFA, followed by immunostaining. Then, observation under a fluorescence microscope was performed.

[7] = test system: C57/BL mouse; test: Vascular permeability in mouse subcutaneous tissue (Evans blue dye, back skin, OD620); type: in vivo; settings: SCF injected intradermally; skin collected after 20 minutes; FIG. 3A, 3B
Protocol: Evans blue dye […] was injected intravenously in the tail of C57/BL mouse. 10 minutes later, SCF and SCF receptor inhibiting antibody (anti-cKit IgG: Monoclonal anti-SCF receptor neutralization antibody: R&D Systems, Minneapolis, Minn., USA) were injected intradermally on the back of the mouse. 20 minutes later, the back skin of the mouse was collected. The region where Evans blue dye was penetrated through tissues was photographed. The skin was fixed in formamide, which stood at room temperature for 4 days. Then, OD620 was measured by using a spectrophotometer.

[8] = test system: vascular endothelial cells; test: Vascular endothelial cell permeability with SCF (transwell, FITC-dextran); type: cell-based; settings: SCF 10, 20 and 50 ng/ml for 1 hour; FITC-conjugated dextran 1 mg/ml, 30 minutes; FIG. 1A
Protocol: Vascular endothelial cells were loaded in the upper chamber of 12 well transwell filter (Corning Costar), followed by culture for 48 hours. The medium was replaced with the endothelical basal medium supplemented with 1% FBS, followed by further culture for 3 hours. SCF (R&D Systems, Minneapolis, Minn., USA) was treated thereto at different concentrations (10, 20, and 50 ng/ml) for 1 hour, followed by the treatment with FITC-conjugated dextran (fluorescein isothiocyanate-dextran) (1 mg/ml). 30 minutes later, the culture fluid was taken from the lower chamber, followed by the measurement with a fluorophotometer.

Substance | permeability of endothelial cells [1] | phosphorylation of C-Kit and Akt-eNOS [2] | level of NO [3] | retinal vessel permeability [4] | permeability of the endothelial cells [5] | expression of VE-cadherin on the cell surface [6] | endocytosis of VE-cadherin [6] | vascular permeability of the mouse (Evans blue leakage in back skin) [7] | permeability of vascular endothelial cells [8]
SCF: cytokine binding to C-Kit (CD117); R&D Systems | increased | induced the phosphorylation | increased | increased | increased | reduced | induced | increased | increased by the treatment of SCF dose-dependently
VEGF |  |  |  |  |  | decreased | increased |  | 
